From US9624215B2, “Amine derivative or salt thereof” (TOYAMA CHEMICAL CO., LTD., priority 2012, dated 2017)
pIC50: −log10 of the molar value.

Tests used:
[1] = tested on: TPA-induced ear edema and acanthosis in Balb/c mice; assay: Mouse TPA-induced ear-swelling model; type: in vivo; details: topical, 240 h, 1% w/v solution, 20 μL applied to ear once a day from day 0 to day 9, female Balb/c mice, read-out: Inhibition rate of change in ear thickness on day 10
Method: Seven-week-old female Balb/c mice (Charles River Laboratories Japan) were used. 20 μL of a 20 ng/mL solution of TPA (Wako Pure Chemical Industries, 162-23591) dissolved in 5% DMSO/acetone was applied to the outer side of the mouse ear on day 0, day 2, day 4, day 7 and day 9 to induce ear edema and acanthosis. The test compound was dissolved in a 5% DMSO/acetone solution (concentration: 1% w/v) and 20 μL of the resulting solution was applied to the outer side of the ear once a day from day 0 to day 9. For the control group, a 5% DMSO/acetone solution was similarly applied. The TPA solution and the test compound solution were mixed and applied on the days for TPA application (day 0, day 2, day 4, day 7 and day 9). The ear thickness was chronologically measured on days 0-4 and days 7-10 using a micrometer (Mitutoyo, MDC-25MJT). The change in ear thickness and the inhibition rate were determined by the following formulas. Change in ear thickness=(ear thickness measured on day 10)−(ear thickness measured on day 0 before TPA application) Inhibition rate (%)=100−(change in ear thickness for test compound group/change in ear thickness for control group)×100

[2] = tested on: normal human neonatal foreskin epidermal keratinocytes (NHEK-F); assay: Cell proliferation inhibition test; type: cell-based; details: Keratinocyte, 72 h, NHEK-F cells, three days incubation, ATPlite or CellTiterGlo, read-out: IC50 (concentration of the compound at which the cell count is reduced by 50%)
Summary of the method: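 NHEK-F keratinocytes, 2×10^3 per well in Humedia-EG2, plated overnight, then exposed to compound for three days. Cell count by ATPlite or CellTiterGlo luminescence; inhibition = 100 − (treated/untreated count)×100, IC50 as 50% reduction concentration.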

SMILES | inhibition in vivo at 1 % strength [1] [%] | pIC50 [2]
Cn1nccc1-c1cc(Nc2ncc(C3CC3)cc2C(=O)O)cc2ccn(C)c12 [Example 596, 5-cyclopropyl-2-((1-methyl-7-(1-methyl-1H-pyrazol-5-yl)-1H-indol-5-yl)amino)nicotinic acid] | ≥ 20 | ≥ 8.00
Cc1cccc(Cn2ccc3cc(Nc4ncc(C5CC5)cc4C(=O)O)ccc32)c1 [Example 456, 5-cyclopropyl-2-((1-(3-methylbenzyl)-1H-indol-5-yl)amino)nicotinic acid] | ≥ 20 | ≥ 8.00
CC(C)Cn1ccc2cc(Nc3ncc(C4CC4)cc3C(=O)O)ccc21 [Example 126, 2-((1-isobutyl-1H-indol-5-yl)amino)-5-cyclopropylnicotinic acid] | ≥ 20 | ≥ 8.00
Cn1cc(-c2ccccc2F)c2cc(Nc3ncc(C4CC4)cc3C(=O)O)ccc21 [Example 557, 5-cyclopropyl-2-((3-(2-fluorophenyl)-1-methyl-1H-indol-5-yl)amino)nicotinic acid] | ≥ 20 | 7.00 to 8.00
Cn1ccc2cc(Nc3ncc(C4CC4)cc3C(=O)O)cc(-c3ccc(C#N)cc3)c21 [Example 484, 2-((7-(4-cyanophenyl)-1-methyl-1H-indol-5-yl)amino)-5-cyclopropylnicotinic acid] | ≥ 20 | ≥ 8.00
COc1cccc(Cn2ccc3cc(Nc4ncc(C5CC5)cc4C(=O)O)ccc32)c1 [Example 237, 5-cyclopropyl-2-((1-(3-methoxybenzyl)-1H-indol-5-yl)amino)nicotinic acid] | ≥ 20 | 7.00 to 8.00
CC(C)c1cc(Nc2ncc(C3CC3)cc2C(=O)O)cc2ccn(C)c12 [Example 411, 5-cyclopropyl-2-((7-isopropyl-1-methyl-1H-indol-5-yl)amino)nicotinic acid] | ≥ 20 | 7.00 to 8.00
O=C(O)c1cc(C2CC2)cnc1Nc1cccc2c1ccn2Cc1ccccc1 [Example 208, 2-((1-benzyl-1H-indol-4-yl)amino)-5-cyclopropylnicotinic acid] | ≥ 20 | 7.00 to 8.00
CCC(CC)Cn1ccc2cc(Nc3ncc(C4CC4)cc3C(=O)O)ccc21 [Example 632, 5-cyclopropyl-2-((1-(2-ethylbutyl)-1H-indol-5-yl)amino)nicotinic acid] | ≥ 20 | ≥ 8.00
O=C(O)c1cc(C2CC2)cnc1Nc1ccc2c(ccn2Cc2cc(F)cc(F)c2)c1 [Example 497, 5-cyclopropyl-2-((1-(3,5-difluorobenzyl)-1H-indol-5-yl)amino)nicotinic acid] | ≥ 20 | ≥ 8.00
O=C(O)c1cc(C2CC2)cnc1Nc1ccc2ccn(CC3CCCCC3)c2c1 [Example 523, 2-((1-(cyclohexylmethyl)-1H-indol-6-yl)amino)-5-cyclopropylnicotinic acid] | ≥ 20 | ≥ 8.00
CC(C)CCn1ccc2cc(Nc3ncc(C4CC4)cc3C(=O)O)ccc21 [Example 448, 5-cyclopropyl-2-(1-isopentyl-1H-indol-5-ylamino)nicotinic acid] | ≥ 20 | ≥ 8.00
Cc1ccc(Cn2ccc3cc(Nc4ncc(C5CC5)cc4C(=O)O)ccc32)cc1 [Example 457, 5-cyclopropyl-2-((1-(4-methylbenzyl)-1H-indol-5-yl)amino)nicotinic acid] | ≥ 20 | ≥ 8.00
O=C(O)c1cc(C2CC2)cnc1Nc1ccc2c(ccn2CC2CCC2)c1 [Example 133, 2-((1-(cyclobutylmethyl)-1H-indol-5-yl)amino)-5-cyclopropylnicotinic acid] | ≥ 20 | ≥ 8.00
CCCCCn1ccc2cc(Nc3ncc(C4CC4)cc3C(=O)O)ccc21 [Example 638, 5-cyclopropyl-2-((1-pentyl-1H-indol-5-yl)amino)nicotinic acid] | ≥ 20 | 7.00 to 8.00
Cn1ccc2cc(Nc3ncc(C4CC4)cc3C(=O)O)cc(-c3ccc(F)cc3)c21 [Example 466, 5-cyclopropyl-2-((7-(4-fluorophenyl)-1-methyl-1H-indol-5-yl)amino)nicotinic acid] | ≥ 20 | ≥ 8.00
COCCCc1cc(Nc2ncc(C3CC3)cc2C(=O)O)cc2ccn(C)c12 [Example 468, 5-cyclopropyl-2-((7-(3-methoxypropyl)-1-methyl-1H-indol-5-yl)amino)nicotinic acid] | ≥ 20 | 7.00 to 8.00
O=C(O)c1cc(C2CC2)cnc1Nc1ccc2c(c1)sc(=O)n2CC1CCCCC1 [Example 565, 2-((3-(cyclohexylmethyl)-2-oxo-2,3-dihydro-1,3-benzothiazol-6-yl)amino)-5-cyclopropylnicotinic acid] | ≥ 20 | ≥ 8.00

SMILES | inhibition in vivo at 1 % strength [1] [%] | pIC50 [2]
O=C(O)c1cc(C2CC2)cnc1Nc1ccc2c(ccn2Cc2cccc(F)c2)c1 [Example 239, 5-cyclopropyl-2-((1-(3-fluorobenzyl)-1H-indol-5-yl)amino)nicotinic acid] | ≥ 20 | ≥ 8.00
Cn1ccc2cc(Nc3ncc(C4CC4)cc3C(=O)O)cc(-c3ccccc3C#N)c21 [Example 482, 2-((7-(2-cyanophenyl)-1-methyl-1H-indol-5-yl)amino)-5-cyclopropylnicotinic acid] | ≥ 20 | ≥ 8.00
O=C(O)c1cc(C2CC2)cnc1Nc1ccc2c(ccn2CC2CCCCC2)c1 [Example 130, 2-((1-(cyclohexylmethyl)-1H-indol-5-yl)amino)-5-cyclopropylnicotinic acid] | ≥ 20 | ≥ 8.00
CCCCn1ccc2cc(Nc3ncc(C4CC4)cc3C(=O)O)ccc21 [Example 637, 2-((1-butyl-1H-indol-5-yl)amino)-5-cyclopropylnicotinic acid] | ≥ 20 | 7.00 to 8.00
Cc1ccc(Nc2ccc3c(ccn3Cc3ccccc3)c2)c(C(=O)O)c1 [Example 206, 2-((1-benzyl-1H-indol-5-yl)amino)-5-methylbenzoic acid] | ≥ 20 | ≥ 8.00
CCn1ccc2cc(Nc3ncc(C4CC4)cc3C(=O)O)cc(-c3ccccc3)c21 [Example 597, 5-cyclopropyl-2-((1-ethyl-7-phenyl-1H-indol-5-yl)amino)nicotinic acid] | ≥ 20 | ≥ 8.00
CCn1ccc2cc(Nc3ncc(C4CC4)cc3C(=O)O)cc(CCCOC)c21 [Example 598, 5-cyclopropyl-2-((1-ethyl-7-(3-methoxypropyl)-1H-indol-5-yl)amino)nicotinic acid] | ≥ 20 | 7.00 to 8.00
Cn1ccc2cc(Nc3ncc(C4CC4)cc3C(=O)O)cc(CCC(C)(C)C)c21 [Example 595, 5-Cyclopropyl-2-((7-(3,3-dimethylbutyl)-1-methyl-1H-indol-5-yl)amino)nicotinic acid] | ≥ 20 | ≥ 8.00
O=C(O)c1cc(C2CCCC2)cnc1Nc1ccc2c(ccn2Cc2ccccc2)c1 [Example 128, 2-((1-benzyl-1H-indol-5-yl)amino)-5-cyclopentylnicotinic acid] | ≥ 20 | –
O=C(O)c1cc(C2CC2)cnc1Nc1ccc2c(ccn2CC2CC2)c1 [Example 146, 5-cyclopropyl-2-((1-(cyclopropylmethyl)-1H-indol-5-yl)amino)nicotinic acid] | – | 7.00 to 8.00
Cn1ccc2cc(Nc3ncc(C4CC4)cc3C(=O)O)cc(-c3cccc(Cl)c3)c21 [Example 489, 2-((7-(3-chlorophenyl)-1-methyl-1H-indol-5-yl)amino)-5-cyclopropylnicotinic acid] | – | ≥ 8.00
O=C(O)c1cc(C2CC2)cnc1Nc1ccc2[nH]cc(-c3ccccc3)c2c1 [Example 156, 5-cyclopropyl-2-((3-phenyl-1H-indol-5-yl)amino)nicotinic acid] | – | 6.00 to 7.00
O=C(O)c1cc(Cl)ccc1Nc1ccc2c(c1)c(C(=O)c1ccccc1)cn2Cc1ccccc1 [Example 86, 2-((3-benzoyl-1-benzyl-1H-indol-5-yl)amino)-5-chlorobenzoic acid] | – | 6.00 to 7.00
O=C(O)c1cc(C2CC2)cnc1Nc1cccc2c1ccn2-c1ccccc1 [Example 433, 5-cyclopropyl-2-((1-phenyl-1H-indol-4-yl)amino)nicotinic acid] | – | ≥ 8.00
O=C(O)c1cc(C2CC2)cnc1Nc1cccc2c1ccn2CC1CCOC1 (stereo not shown) [Example 427, 5-cyclopropyl-2-((1-((tetrahydrofuran-3-yl)methyl)-1H-indol-4-yl)amino)nicotinic acid] | – | 7.00 to 8.00
O=C(O)c1cc(Cl)ccc1Nc1ccc2c(ccn2-c2cnc3ccccc3c2)c1 [Example 317, 5-chloro-2-((1-(quinolin-3-yl)-1H-indol-5-yl)amino)benzoic acid] | – | ≥ 8.00
Cc1cccc(-c2cn(C)c3ccc(Nc4ncc(C5CC5)cc4C(=O)O)cc23)c1 [Example 569, 5-cyclopropyl-2-((1-methyl-3-(3-methylphenyl)-1H-indol-5-yl)amino)nicotinic acid] | – | 6.00 to 7.00
